The results in this text go back to patent US7410975B2, “Small molecule toll-like receptor (TLR) antagonists” (Coley Pharmaceutical Group, Inc., priority 2003, dated 2008).

Like-named read-outs stand apart in the source and are kept apart here.

Holding throughout (type): cell-based
In assay [1] the target is T1, human TLR9 (hTLR9) (Homo sapiens, UniProt Q9NR96).
T1 construct: expressed in transfected cells
T1 sequence (Q9NR96 26-1032): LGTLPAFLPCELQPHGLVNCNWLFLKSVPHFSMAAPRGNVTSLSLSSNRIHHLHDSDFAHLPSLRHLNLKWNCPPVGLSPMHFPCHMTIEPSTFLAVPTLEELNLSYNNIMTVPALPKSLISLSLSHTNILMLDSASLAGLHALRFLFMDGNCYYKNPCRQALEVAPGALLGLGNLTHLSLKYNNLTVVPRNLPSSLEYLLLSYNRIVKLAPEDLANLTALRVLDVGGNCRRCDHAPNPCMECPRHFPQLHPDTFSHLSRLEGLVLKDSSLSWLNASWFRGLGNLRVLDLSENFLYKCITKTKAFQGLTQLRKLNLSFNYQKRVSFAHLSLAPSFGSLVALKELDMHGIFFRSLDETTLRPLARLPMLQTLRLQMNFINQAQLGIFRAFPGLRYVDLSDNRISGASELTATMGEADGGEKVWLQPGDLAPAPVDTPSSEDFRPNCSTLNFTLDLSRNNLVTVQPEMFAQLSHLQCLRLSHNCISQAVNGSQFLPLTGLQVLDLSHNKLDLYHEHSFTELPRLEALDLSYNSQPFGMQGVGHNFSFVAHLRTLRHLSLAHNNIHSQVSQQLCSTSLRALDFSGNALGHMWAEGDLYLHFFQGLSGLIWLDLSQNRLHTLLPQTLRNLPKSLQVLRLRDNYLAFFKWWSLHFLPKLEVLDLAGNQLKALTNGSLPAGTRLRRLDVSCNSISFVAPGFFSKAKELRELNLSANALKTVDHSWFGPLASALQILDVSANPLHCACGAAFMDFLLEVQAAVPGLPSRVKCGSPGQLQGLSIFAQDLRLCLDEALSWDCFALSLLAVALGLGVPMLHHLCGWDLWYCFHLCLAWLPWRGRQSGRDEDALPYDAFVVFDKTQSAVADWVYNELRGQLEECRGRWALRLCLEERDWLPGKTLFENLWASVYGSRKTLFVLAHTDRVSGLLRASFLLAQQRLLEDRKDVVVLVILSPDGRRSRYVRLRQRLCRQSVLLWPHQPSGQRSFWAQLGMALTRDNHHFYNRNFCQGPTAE
How it is done: Stably co-transfecting the human TLR9 receptor (hTLR9) and an NF-κB promoter-driven luciferase gene into HEK-293 cells created the cell line hTLR9-NFkB-293. hTLR9-NFkB-293 cells were counted and seeded at 1.5×10^4 cells per well in 96-well cell culture plates one day before assaying and cultured at 37° C./5% CO2. The day of the assay, antagonist was added at 50 μM, 5.0 μM or 0.5 μM. The cells were then stimulated with the EC50 dose of the TLR9 agonist, CpG-ODN 2006, and cultured for 16 h in a humidified incubator at 37° C. The culture supernatant was removed and the cells were treated with lysis buffer and stored at −80° C. before measuring luciferase activity. The luciferase readout was measured according to manufacturer's instructions using a luciferase assay system available from Promega, USA. The antagonist dose listed in Table 18 is the minimum effective dose (μM) for blockade of the TLR9 agonist. As evident from the results presented in Table 18, the minimum effective dose (μM) for blockade of the TLR9 agonist was 0.5 μM or 5 μM for all of the compounds tested, as measured by this three-point assay.

The target in the next assay is T2, hTLR9 (Homo sapiens, UniProt Q9NR96).
T2 construct: expressed in transfected cells
T2 sequence (Q9NR96 26-1032): T1 sequence (Q9NR96 26-1032)
Put plainly: hTLR9 antagonism IC50, hTLR9-NFkB-293 cells, luciferase readout, CpG-ODN 2006 (Examples 8 and 18, Tables 19 and 20). Conditions: for inhibition of TLR9 signaling in vitro (in words): CpG-ODN 2006. How it is done: (§1) hTLR9-NFkB-293 cells were counted and seeded at 1.5×10^4 cells per well in 96-well cell culture plates one day before assaying and cultured at 37° C./5% CO2, as described in Example 7. The day of the assay, antagonist was added at varying concentrations starting at 50 μM with a 1/5 to 1/6 dilution for 7 steps. The cells were then stimulated with the EC50 dose of the TLR9 agonist, CpG-ODN 2006, and cultured for 16 h in a humidified incubator at 37° C. The culture supernatant was removed and the cells were treated with lysis buffer and stored at −80° C. before measuring luciferase activity as described in Example 7. […] Results shown in Table 19 under the heading hTLR9 are the IC50 dose (μM) for blockade of a CpG ODN-generated signal in hTLR9-NFkB-293 cells.
as §1, with “20” for “19”

Assay [2] deals with T1, human TLR9 (hTLR9). Put plainly: Antagonist screen, hTLR9-NFκB-293 cells, 6× NF-κB-luciferase reporter, with EC50 of CpG ODN 2006. Conditions: compound at 0.5, 5, 50 μg/ml; EC50 concentration of CpG ODN 2006; 16 h; NF-κB-luciferase. How it is done:
Candidate small molecules for initial screening were obtained from a commercially available library of 880 off-patent small molecules selected for structural diversity and proven bioavailability in humans (Prestwick Chemical Library). […] Results were measured as fold induction over baseline luciferase activity measured in the absence of ODN 2006 and compared to fold induction over baseline in the presence of the EC50 concentration of ODN 2006 alone. […] Additional screening was performed in like manner using additional small molecules selected from another library or specifically prepared for this purpose.
The method is described in greater detail as follows. The cells for each individual cell clone (hTLR3-NFκB-293, hTLR7-NFκB-293, hTLR8-NFκB-293 and hTLR9-NFκB-293) were counted and seeded one day before the stimulation at 1.5×10^4 cells per well in 96-well cell culture plates. To become adherent the cells were incubated after seeding overnight at 37° C. in 5% CO2 humidified air.
The screen for each compound was performed at the same time for all of the receptors TLR3, TLR7, TLR8 and TLR9. Up to fifteen test compounds, each assayed in duplicate at each of three different final concentrations (0.5 μg/ml, 5 μg/ml, and 50 μg/ml), were used for 16 h cell stimulation on a single multiwell culture plate. A 4× final concentration master plate was created to prepare the different test compounds before they were added to the cells.
Controls were added as duplicates individually for each cell clone on the cell culture plate. Positive controls were used as follows (final concentrations): 50 μg/ml poly(I:C) for hTLR3-NFκB-293; 8 μM resiquimod (R848) for hTLR7-NFκB-293; 30 μM R848 for hTLR8-NFκB-293; and 2.5 μM CpG-ODN 2006 for hTLR9-NFκB-293. Media alone was used as negative control. After addition of controls and small molecules, the cell clones were additionally stimulated with the EC50 concentration of the appropriate receptor-specific ligand.
The mean value of wells H2 and H5 (each with cells and EC50 concentration of the appropriate receptor-specific ligand) divided by the mean of wells H3 and H6 (each with cells alone) yielded the baseline response (i.e., fold induction of luciferase activity) to EC50 concentration of the appropriate receptor-specific ligand.
After 16 h stimulation the supernatant was removed and the cells treated with lysis buffer and stored at −80° C. before measuring.
For each screen result a graphical documentation was performed.
The baseline result (measured with addition of the EC50 concentration of the receptor-specific ligand) for each cell culture plate was measured as described above. Antagonistic effects were measured by down regulation compared to the baseline. Antagonists were scored as follows: • 13: compounds for which there was clear down regulation at 0.5 μg/ml, 5 μg/ml, and 50 μg/ml; • 12: compounds for which there was clear down regulation at 5 μg/ml and 50 μg/ml; • 11: compounds for which there was clear down regulation only at 50 μg/ml; • —: compounds for which there was no clear down regulation even at 50 μg/ml. Agonists

The mark [3] stands for this setting: three-point assay at 50, 5.0 or 0.5 μM, EC50 dose of CpG-ODN 2006, 16 h.
[4] abbreviates: hTLR9-NFkB-293 cells, EC50 dose of CpG-ODN 2006, 16 h, Table 19 quinazolines, read-out: hTLR9 (IC50 dose for blockade of a CpG ODN-generated signal).
The mark [5] stands for this setting: hTLR9-NFkB-293 cells, EC50 dose of CpG-ODN 2006, 16 h, Table 20 diarylmethanes, read-out: hTLR9 (IC50 dose for blockade of a CpG ODN-generated signal).

As to `CC1(C)C=Cc2c(nc3ccccc3c2N)C1` [compound 1201, 3,3-Dimethyl-3,4-dihydro-acridin-9-ylamine], the “antagonist dose (minimum effective dose for blockade of the TLR9 agonist)” value (“antagonist dose” for short) on human TLR9 (hTLR9) [1] (setting [3]) amounted to 0.5 µM. Consider `Nc1c2c(nc3ccccc13)CCCCC2` [compound 936, 7,8,9,10-Tetrahydro-6H-cyclohepta[b]quinolin-11-ylamine], for which the “antagonist dose” value at human TLR9 (hTLR9) [1] (setting [3]) came to 0.5 µM. For the compound `COc1cc2nc(N3CCN(c4ccccc4)CC3)nc(N)c2cc1OC` [CMZ 203-90], the IC50 at hTLR9 (setting [4]) came out at 5.43 µM. On to `Cc1ccc2nc3c(c(N)c2c1)CCN3c1ccccc1` [1552(127), 6-Methyl-1-phenyl-2,3-dihydro-1H-pyrrolo[2,3-b]quinolin-4-ylamine], for which the “antagonist dose” value on human TLR9 (hTLR9) [1] (setting [3]) is 0.5 µM.

On hTLR9, `CN1CCN(c2ccc(Cc3ccccc3)cc2)CC1` [CMZ 203-88-1] displayed an IC50 of 12 µM. The “inhibition of TLR9 signaling in vitro (in words)” value (“inhibition of TLR9 signaling” for short) on hTLR9 (hTLR9-NFkB-293 cells) is listed as “found to inhibit TLR9 signaling”. Take `CN(C)c1cc(N)c2ccccc2n1` [1553(128), N*2*,N*2*-Dimethyl-quinoline-2,4-diamine]: on human TLR9 (hTLR9) [1] (setting [3]), the “antagonist dose” value amounted to 0.5 µM.

Take `Cc1cc(C)c2c(N)c3cc(F)ccc3nc2n1` [compound 1727, 7-Fluoro-2,4-dimethyl-benzo[b][1,8]naphthyridin-5-ylamine]: on human TLR9 (hTLR9) [1] (setting [3]), the “antagonist dose” value is 0.5 µM. On to `CN1CCN(c2ccc(C(c3ccccc3)N3CCN(C)CC3)cc2)CC1` (stereo not drawn) [CMZ 203-91], for which the “inhibition of TLR9 signaling” value at hTLR9 (hTLR9-NFkB-293 cells) is recorded as “found to inhibit TLR9 signaling”. Besides, at hTLR9 (setting [5]), the half-maximal inhibitory concentration (IC50) stood at 3.95 µM. With `Cl.Nc1c2c(nc3ccccc13)CCCC2` [compound 329, 1,2,3,4-Tetrahydro-acridin-9-ylamine Tacrine hydrochloridehydrate, reference compound], the “antagonist dose” value at human TLR9 (hTLR9) [1] is 5.0 µM.

Regarding `CN(C)CCNC(c1ccccc1)c1ccc(N2CCN(C)CC2)cc1` (stereo not drawn) [CMZ 203-89], the “inhibition of TLR9 signaling” value on hTLR9 (hTLR9-NFkB-293 cells) is reported as “found to inhibit TLR9 signaling”. Also, the IC50 on hTLR9 (setting [5]) was determined as 0.241 µM.

With `CN(C)CCOc1nc(-c2ccccc2)nc2ccccc12` [CMZ 203-45, Dimethyl-[2-(2-phenyl-quinazolin-4-yloxy)-ethyl]-amine], the IC50 on hTLR9 (setting [4]) turned out to be 29 µM.

Compound `CN1CCN(c2ccc(C(O)c3ccccc3)cc2)CC1` (stereo not drawn) [CMZ 203-84] displayed an IC50 on hTLR9 of 25.6 µM. The “inhibition of TLR9 signaling” value against hTLR9 (hTLR9-NFkB-293 cells) is listed as “found to inhibit TLR9 signaling”.

Turning to `CN1CCN(c2ccc(/C(=N\O)c3ccccc3)cc2)CC1` [CMZ 203-88], at hTLR9 (hTLR9-NFkB-293 cells), the “inhibition of TLR9 signaling” value is recorded as “found to inhibit TLR9 signaling”. The 50% inhibitory concentration (IC50) at hTLR9 (setting [5]) is 11.6 µM. For `Nc1c2c(nc3ccccc13)CCC2` [compound 1061, 2,3-Dihydro-1H-cyclopenta[b]quinolin-9-ylamine], at human TLR9 (hTLR9) [1] (setting [3]), the “antagonist dose” value was found to be 5.0 µM.

With `Cc1ccc2nc3nc4c(C)cccc4c(N)c3cc2c1` [compound 1595, 2,7-Dimethyl-dibenzo[b,g][1,8]naphthyridin-11-ylamine], the “antagonist dose” value on human TLR9 (hTLR9) [1] (setting [3]) is 0.5 µM. On the same count and under the same terms, under `Cc1cc(C)c2c(N)c3cccc(C)c3nc2n1` [compound 1227, 2,4,9-Trimethyl-benzo[b][1,8]naphthyridin-5-ylamine] stands 5.0 µM; under `CC1(C)Cc2nc3ccccc3c(N)c2C(O)C1` (stereo not drawn) [compound 1286, 9-Amino-3,3-dimethyl-1,2,3,4-tetrahydro-acridin-1-ol], 5.0 µM; under `Cc1cc(C)c2c(N)c3ccccc3nc2n1` [compound 1690, 2,4-Dimethyl-benzo[b][1,8]naphthyridin-5-ylamine], 0.5 µM. Take `CN(C)CCOC(c1ccccc1)c1ccc(N2CCN(C)CC2)cc1` (stereo not drawn) [CMZ 203-85]: on hTLR9 (hTLR9-NFkB-293 cells), the “inhibition of TLR9 signaling” value is “found to inhibit TLR9 signaling”. Further, the half-inhibitory concentration (IC50) on hTLR9 (setting [5]) turned out to be 0.372 µM. With `CN1CCN(c2ccc(-c3nc(NCCN4CCOCC4)c4ccccc4n3)cc2)CC1` [CMZ 203-87], the IC50 at hTLR9 (setting [4]) came to 0.02 µM. With `CN(C)CCCN1c2ccccc2CCc2ccccc21.Cl` [compound 72, Imipraminehydrochloride], the “hTLR9 (inhibitory effect, antagonist score)” value on human TLR9 (hTLR9) [2] is 13 (compounds for which there was clear down regulation at 0.5 μg/ml, 5 μg/ml, and 50 μg/ml).
